Reference: ChEMBL document CHEMBL1201862, “PubChem BioAssay data set” (2004)
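Assay format: 96-well plates, 48-hour exposure. GI50 marks 50% less growth.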 Activity calls are given as the source filed them. No stated cut-off is given here; in the data, active = GI50 up to about 1.1 µM and inactive = higher.

How the values were obtained:
Experiment in all cases: NCI anticancer screen, dose series, 48 h
[1] = system: SR
[2] = system: SNB-75
[3] = system: SNB-19
[4] = system: UACC-62
[5] = system: COLO 205
[6] = system: SK-OV-3
[7] = system: HL-60
[8] = system: CCRF-CEM
[9] = system: SF-268
[10] = system: A498
[11] = system: OVCAR-4
[12] = system: TK-10
[13] = system: CAKI-1
[14] = system: NCI-H460
[15] = system: HCT-15
[16] = system: OVCAR-5
[17] = system: HT-29

Compound	GI50 [1]	GI50 [2]	GI50 [3]	GI50 [4]	GI50 [5]	GI50 [6]	GI50 [7]	GI50 [8]	GI50 [9]	GI50 [10]	GI50 [11]	GI50 [12]	GI50 [13]	GI50 [14]	GI50 [15]	GI50 [16]	GI50 [17]
CCOC(=O)NC/C=C/CO	> 100 µM (inactive)	> 100 µM (inactive)	> 100 µM (inactive)	> 100 µM (inactive)	> 100 µM (inactive)	> 100 µM (inactive)	> 100 µM (inactive)	> 100 µM (inactive)	> 100 µM (inactive)	> 100 µM (inactive)	> 100 µM (inactive)	> 100 µM (inactive)	> 100 µM (inactive)	> 100 µM (inactive)	> 100 µM	–	–
O=C(Nc1nc2ncn(CCI)c2c(=O)[nH]1)c1ccccc1	> 100 µM (inactive)	20.5 µM (inactive)	41.9 µM (inactive)	53.8 µM (inactive)	> 100 µM (inactive)	33.7 µM (inactive)	> 100 µM (inactive)	> 100 µM (inactive)	21.5 µM (inactive)	16 µM (inactive)	> 100 µM (inactive)	31.3 µM (inactive)	> 100 µM (inactive)	> 100 µM (inactive)	98.6 µM	> 100 µM (inactive)	> 100 µM (inactive)
Cc1cc2occ(-c3ccc(Cl)cc3)c2c(=O)o1	38.1 µM (inactive)	55.7 µM (inactive)	> 100 µM (inactive)	> 100 µM (inactive)	> 100 µM (inactive)	> 100 µM (inactive)	> 100 µM (inactive)	> 100 µM (inactive)	> 100 µM (inactive)	> 100 µM (inactive)	> 100 µM (inactive)	> 100 µM (inactive)	98.6 µM (inactive)	> 100 µM (inactive)	> 100 µM	> 100 µM (inactive)	> 100 µM (inactive)
CC(Oc1ccc(OCC2CCCCC2)cc1)C(=O)O (stereo unspecified)	–	> 100 µM (inactive)	–	> 100 µM (inactive)	–	> 100 µM (inactive)	> 100 µM (inactive)	> 100 µM (inactive)	> 100 µM (inactive)	–	> 100 µM (inactive)	> 100 µM (inactive)	–	> 100 µM (inactive)	> 100 µM	–	> 100 µM (inactive)
CCc1cccc(C(C)C)c1NC(=O)CCl	71.4 µM (inactive)	37.5 µM (inactive)	28.1 µM (inactive)	45.1 µM (inactive)	–	> 100 µM (inactive)	22.4 µM (inactive)	37.1 µM (inactive)	> 100 µM (inactive)	–	–	> 100 µM (inactive)	> 100 µM (inactive)	–	> 100 µM	–	> 100 µM (inactive)
Cc1c(-c2coc(-c3ccc(Cl)cc3)n2)c(=O)n(-c2ccccc2)n1C	> 100 µM (inactive)	> 100 µM (inactive)	–	> 100 µM (inactive)	> 100 µM (inactive)	> 100 µM (inactive)	> 100 µM (inactive)	> 100 µM (inactive)	> 100 µM (inactive)	> 100 µM (inactive)	> 100 µM (inactive)	> 100 µM (inactive)	–	> 100 µM (inactive)	> 100 µM	> 100 µM (inactive)	> 100 µM (inactive)
C[C@H]1C=C2C(=O)O[C@H]3CC[C@@H](C1)[C@@]23O	0.233 µM (active)	5.87 µM (inactive)	16.3 µM (inactive)	3.18 µM (inactive)	3.26 µM (inactive)	8 µM (inactive)	2.12 µM (inactive)	2.01 µM (inactive)	3.13 µM (inactive)	10.6 µM (inactive)	10.3 µM (inactive)	4.68 µM (inactive)	3.72 µM (inactive)	6 µM (inactive)	3.65 µM	4.33 µM (inactive)	3.97 µM (inactive)
CCN(CCCl)CCCNc1c2ccccc2nc2ccc(OC)cc12	0.0158 µM (active)	0.635 µM (active)	1.05 µM (active)	0.118 µM (active)	0.0964 µM (active)	1.04 µM (active)	0.039 µM (active)	0.0993 µM (active)	0.122 µM (active)	1.19 µM (inactive)	0.682 µM (active)	1.01 µM (active)	0.0959 µM (active)	0.0802 µM (active)	0.257 µM	0.344 µM (active)	0.0853 µM (active)
COc1cc(/C=C/c2ccncc2)cc(OC)c1OC	–	39.2 µM (inactive)	> 100 µM (inactive)	67.1 µM (inactive)	> 100 µM (inactive)	–	24.6 µM (inactive)	42.9 µM (inactive)	> 100 µM (inactive)	30.5 µM (inactive)	76.9 µM (inactive)	41 µM (inactive)	49 µM (inactive)	> 100 µM (inactive)	49.4 µM	38.8 µM (inactive)	64.3 µM (inactive)
